Entries after “also recorded” stand apart in the source; their conditions may differ.
Test: DPPH radical scavenging (antioxidant) assay
Details: for radical scavenging activity (in words): DPPH assay, up to 100 μg/mL, FIG. 8
Experimental: Antioxidant activity was analyzed using 2,2-Diphenyl-1-picryhydrazyl (DPPH) assay according to the reports (22). Briefly, 50 μl of sample solution in DMSO was added to 200 μl of 200 μM DPPH radical solution in a 96-well plate. L-ascorbic acid and α-Tocopherol were used as positive controls. After 30 min of incubation at 37° C., the absorbance at 515 nm was measured. DPPH free radical scavenging activities was calculated using the equation; radical scavenging activity (%)=[1−(Asample−Ablank)/(Acontrol−Ablank)]×100. DMSO was used as a control.

| Structure (SMILES) | radical scavenging activity (in words) | radical scavenging activity (highest concentration tested, 100 μg/mL, 30 min at 37° C., absorbance 515 nm) |
| --- | --- | --- |
| CCCCCCCCc1ccc(CCCCCC(=O)O)o1 [7,10-EODA, 7,10-epoxy-octadeca-7,9-dienoic acid] | radical scavenging activity increasing in a dose-dependent manner; also recorded: increased dose-dependently | 23% |
| CCCCCCCC[C@H](O)/C=C/[C@@H](O)CCCCCC(=O)O [DOD, 7,10-dihydroxy-8(E)-octadecenoic acid, reference compound] | did not show any activity |  |
